In ChEMBL document CHEMBL1687703, “Modification at the Lipophilic Domain of RXR Agonists Differentially Influences Activation of RXR Heterodimers” (ACS Med Chem Lett, 2010):
The source made the active and inactive calls. The calls are words filed in the database; no cut-off is given here.

Experiments:
[1] = biological target: T1, Retinoic acid receptor RXR-alpha (Homo sapiens, UniProt P19793); assay: Agonist activity at RXRalpha transfected in […] COS1 cells after 18 hrs by luciferase reporter gene transactivation assay; type: functional, cell-based, COS-1
T1 sequence (P19793 whole entry): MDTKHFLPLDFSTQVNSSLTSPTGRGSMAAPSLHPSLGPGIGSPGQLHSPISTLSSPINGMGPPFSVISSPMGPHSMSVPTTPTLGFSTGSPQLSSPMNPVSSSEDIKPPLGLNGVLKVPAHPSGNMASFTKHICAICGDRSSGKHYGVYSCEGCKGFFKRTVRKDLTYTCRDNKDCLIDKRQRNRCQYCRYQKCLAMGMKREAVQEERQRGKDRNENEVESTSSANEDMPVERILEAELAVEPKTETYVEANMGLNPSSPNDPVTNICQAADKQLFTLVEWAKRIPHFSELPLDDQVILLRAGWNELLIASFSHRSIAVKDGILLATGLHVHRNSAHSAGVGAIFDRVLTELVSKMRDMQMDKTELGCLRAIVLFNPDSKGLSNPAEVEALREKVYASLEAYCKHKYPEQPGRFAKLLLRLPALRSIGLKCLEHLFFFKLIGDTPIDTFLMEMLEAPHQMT

[2] = biological target: T2, Oxysterols receptor LXR-alpha (Homo sapiens) (UniProt Q13133); assay: Agonist activity at LXRalpha transfected in […] COS1 cells after 18 hrs by luciferase reporter gene transactivation assay; type: functional, cell-based; conditions: COS-1
T2 sequence (whole entry): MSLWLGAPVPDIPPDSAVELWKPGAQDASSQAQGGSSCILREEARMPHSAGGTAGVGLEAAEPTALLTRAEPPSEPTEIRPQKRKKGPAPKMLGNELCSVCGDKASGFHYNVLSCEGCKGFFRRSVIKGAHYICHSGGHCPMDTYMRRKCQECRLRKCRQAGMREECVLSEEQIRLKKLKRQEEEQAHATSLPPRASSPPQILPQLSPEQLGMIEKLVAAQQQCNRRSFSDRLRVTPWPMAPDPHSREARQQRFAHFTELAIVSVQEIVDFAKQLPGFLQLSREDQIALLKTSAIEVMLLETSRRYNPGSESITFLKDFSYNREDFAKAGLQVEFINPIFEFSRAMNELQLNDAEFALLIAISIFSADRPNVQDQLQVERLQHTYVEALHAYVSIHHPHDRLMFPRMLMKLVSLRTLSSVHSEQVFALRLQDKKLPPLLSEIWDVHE

[3] = biological target: Retinoic acid receptor RXR-alpha/oxysterols receptor LXR-alpha (Homo sapiens) (UniProt P19793+Q13133); assay: Agonist activity at LXRalpha/RXRalpha transfected in […] COS1 cells at 10^-7 to 10^-6 M after 18 hrs by luciferase reporter gene transactivation assay; type: functional, cell-based; conditions: COS-1

| EC50 [1] | Activity [2] | Activity [3] | Structure (SMILES) |
| --- | --- | --- | --- |
| 110 nM |  |  | C=C(C)COc1cc(N(CC)c2ccc(C(=O)O)cn2)ccc1C(C)C |
| 180 nM |  |  | CCCCOc1cc(N(CC)c2ccc(C(=O)O)cn2)ccc1C(C)C |
| 160 nM |  |  | CCN(c1ccc(C(C)C)c(OCC=C(C)C)c1)c1ccc(C(=O)O)cn1 |
|  | Active |  | CCN(c1ccc(C(C)C)c(OCC(C)C)c1)c1ccc(C(=O)O)cn1 |
| 280 nM |  |  | CCCCCCOc1cc(N(CC)c2ccc(C(=O)O)cn2)ccc1C(C)C |
| 160 nM |  | Active | CCCCCOc1cc(N(CC)c2ccc(C(=O)O)cn2)ccc1C(C)C |
| 450 nM |  |  | CCCOc1cc(N(CC)c2ccc(C(=O)O)cn2)ccc1C(C)C |
| 290 nM |  | Active | CCN(c1ccc(C(C)C)c(OCC2CC2)c1)c1ccc(C(=O)O)cn1 |

Continued, compound first:

| Structure (SMILES) | EC50 [1] | Activity [2] | Activity [3] |
| --- | --- | --- | --- |
| CCN(c1ccc(C(C)C)c(OCC(F)(F)F)c1)c1ccc(C(=O)O)cn1 | 160 nM |  |  |
| CCN(c1ccc2c(c1)C(C)(C)CCC2(C)C)c1ccc(C(=O)O)cn1 |  | Active |  |
| CCN(c1ccc(C(C)C)c(OCc2ccccc2)c1)c1ccc(C(=O)O)cn1 | 160 nM |  | Active |
| CCN(c1ccc(C(C)C)c(OCCc2ccccc2)c1)c1ccc(C(=O)O)cn1 | 330 nM |  |  |
| CCN(c1ccc(C(C)C)c(OCCCc2ccccc2)c1)c1ccc(C(=O)O)cn1 | 820 nM |  |  |
| CCN(c1ccc(C(C)C)c(OC(C)C)c1)c1ccc(C(=O)O)cn1 | 66 nM |  |  |
